Measured values published in patent publication EP4737450A1 (Longwood Pharmaceuticals (Hangzhou) Co., Ltd, priority 2023, dated 2025).
Like-named read-outs stand apart in the source and are kept apart here.

Molecular target: T1, plasma kallikrein (PKa) (Homo sapiens, UniProt P03952)
T1 construct: purchased R & D 2497-SE
Assay: Inhibitory activity against plasma kallikrein in vitro (fluorescence intensity enzyme assay, Pro-Phe-Arg-AMC substrate)
Type: biochemical
Conditions: Pro-Phe-Arg-AMC substrate
Description: Test of the inhibitory activities of the compounds of the present invention against plasma kallikrein (PKa), KLK1 and FXIa in vitro.
The final concentrations of enzyme protein and Pro-Phe-Arg-AMC in the reaction mixture were 10 nM and 60 µM, respectively. The starting concentration of the positive reference substance Avoralstat was 100 nM, 3-fold dilution, 10 + 0 dose. 0.05 µL of compound in 100% DMSO was delivered to a 384-well plate by an acoustic liquid delivery technique (Echo665; nanoliter range). Compound duplex test. […] IC50 values and nonlinear regression curve fitting were obtained using GraphPad Prism software.

[1] = plasma kallikrein enzyme assay, read-out: PKa IC50
[2] = PKa IC50, plasma kallikrein enzyme assay

T1 sequence (P03952 391-638 limits assumed): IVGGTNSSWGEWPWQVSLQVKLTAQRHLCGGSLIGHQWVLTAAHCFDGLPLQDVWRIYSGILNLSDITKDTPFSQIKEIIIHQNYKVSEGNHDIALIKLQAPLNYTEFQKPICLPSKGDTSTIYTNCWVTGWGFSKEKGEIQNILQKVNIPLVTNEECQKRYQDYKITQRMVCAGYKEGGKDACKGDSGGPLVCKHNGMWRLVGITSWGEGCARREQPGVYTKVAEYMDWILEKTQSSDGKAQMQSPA
T1 sequence (P03952 20-390 partner limits assumed): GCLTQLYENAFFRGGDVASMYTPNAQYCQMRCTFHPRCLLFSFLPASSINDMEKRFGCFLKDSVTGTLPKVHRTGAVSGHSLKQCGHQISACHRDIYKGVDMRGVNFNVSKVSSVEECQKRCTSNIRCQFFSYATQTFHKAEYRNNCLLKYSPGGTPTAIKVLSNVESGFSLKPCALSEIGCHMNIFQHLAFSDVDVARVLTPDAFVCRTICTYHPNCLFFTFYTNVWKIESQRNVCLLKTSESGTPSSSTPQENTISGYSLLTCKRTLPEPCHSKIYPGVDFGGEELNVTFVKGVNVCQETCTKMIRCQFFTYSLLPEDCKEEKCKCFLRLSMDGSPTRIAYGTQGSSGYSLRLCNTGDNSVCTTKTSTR

Row | SMILES | IC50 [1] [nM] | IC50 [2] [nM]
1 | N=C(N)c1ccc(CNC(=O)c2cnn(Cc3ccc(CC4CC4)cc3)c2)nc1 [Compound 243] | 14.3 | 
2 | COCC1(F)CN(Cc2nn(Cc3ccc(Cn4cc(F)ccc4=O)cc3)cc2C(=O)NCc2c(F)ccc(OC)c2F)C1 [Compound 220] | 12 | 
3 | O=C(NCc1nccc(NC2COC2)c1F)c1cn(Cc2ccc(Cn3ccccc3=O)cc2)nc1N1CC(F)(F)C1 [Compound 332] | 540 | 
4 | COc1ccc(F)c(CNC(=O)c2cn(Cc3ccc(Cn4cc(F)ccc4=O)cc3)nc2[C@@H](C)C2COC2)c1F [Compound 180] | 7.88 | 
5 | O=C(NCc1nccc(C2CC2)c1F)c1cn(Cc2ccc(CC3CC3)cc2)nc1C1COC1 [Compound 343] | > 1000 | 
6 | CN(C)c1ccnc(CNC(=O)c2cn(Cc3ccc(CC4CC4)cc3)nc2C2COC2)c1F [Compound 334] | 421 | 
7 | COc1ccc(F)c(CNC(=O)c2cn(Cc3ccc(Cn4cc(F)ccc4=O)cc3)nc2N[C@H]2CCOC2)c1F [Compound 298] | 2.79 | 
8 | COc1ccc(F)c(CNC(=O)c2cn(Cc3ccc(Cn4cc(F)ccc4=O)cc3)nc2N2CC(F)(F)C2)c1F [Compound 281] | 24.9 | 
9 | O=C(NCc1nccc(-n2nccn2)c1F)c1cn(Cc2ccc(Cn3ccccc3=O)cc2)nc1C1COC1 [Compound 352] | 90 | 
10 | COCc1nn(Cc2ccc(-n3ccccc3=O)cc2)cc1C(=O)NC1CCc2c1ncn2C (centres unmarked) [Compound 96] | > 100 | 
11 | O=C(NCc1ccc2cnccc2c1)c1cnn(Cc2ccc(Cn3ccccc3=O)cc2)c1 [Compound 207] | 165 | 
12 | COCc1nn(Cc2ccc(N3CCOCC3=O)cc2)cc1C(=O)NCc1cn2c(n1)CNCC2 [Compound 112] | > 100 | 
13 | O=C(NCc1nccc(N2CCCC2)c1F)c1cn(Cc2ccc(CC3CC3)cc2)nc1C1COC1 [Compound 333] | > 1000 | 
14 | COc1ccnc(CNC(=O)c2cn(Cc3ccc(Cn4ccccc4=O)cc3)nc2C2CC(OC)C2)c1F (centres unmarked) [Compound 208] | 7.99 | 
15 | COCCn1c(CNC(=O)c2cn(Cc3ccc(Cn4ccccc4=O)cc3)nc2COC)cc2cnccc21 [Compound 192] | > 1000 | 
16 | COc1ccnc(CNC(=O)c2cn(Cc3ccc(Cn4ccccc4=O)cc3)nc2-c2cncnc2)c1F [Compound 304] | 7.24 | 
17 | COc1ccc(F)c(CNC(=O)c2cn(Cc3ccc(Cn4ccccc4=O)cc3)nc2COCCN2CCCC2)c1F [Compound 230] | 9.8 | 
18 | COc1ccnc(CNC(=O)c2cn(Cc3ccc(Cn4ccccc4=O)cc3)nc2C2CC(C)(OC)C2)c1F (centres unmarked) [Compound 210] | 5.99 | 
19 | Nc1ccnc(CNC(=O)c2cn(Cc3ccc(Cn4ccccc4=O)cc3)nc2N2CC(F)(F)C2)c1F [Compound 268] | 68.6 | 
20 | Cc1cc(N)nc(C)c1CNC(=O)c1nnc(Cc2cn3cc(C4CC4)ccc3n2)o1 [Compound 17] | 36.2 | 
21 | N=C(N)c1cnc(CNC(=O)c2cnn(Cc3ccc(CC4CC4)cc3)c2)c(F)c1 [Compound 358] | 6.06 | 
22 | COc1ccnc(CNC(=O)c2cn(Cc3ccc(Cn4ccccc4=O)cc3)nc2COC2CCCOC2)c1F (centres unmarked) [Compound 294] | 10.6 | 
23 | COCc1nn(Cc2ccc(CN3CC(F)(F)C3)cc2)cc1C(=O)NCc1nccc(OC)c1F [Compound 103] | > 100 | 

Row | SMILES | IC50 [1] [nM] | IC50 [2] [nM]
24 | COCc1nn(Cc2ccc(N3CCCCC3=O)cc2C#N)cc1C(=O)NCc1nccc(OC)c1F [Compound 182] | > 1000 | 
25 | CC(C)CNc1ccnc(CNC(=O)c2cn(Cc3ccc(Cn4ccccc4=O)cc3)nc2N2CC(F)(F)C2)c1F [Compound 279] | > 1000 | 
26 | Cn1cnc2c1CC[C@H]2NC(=O)c1ncn(Cc2ccc(CN3CCCCC3=O)cc2)n1 [Compound 79] | > 100 | 
27 | COc1ccnc(CNC(=O)c2cn(Cc3ccc(Cn4cc(F)ccc4=O)cc3)nc2COCC2(C)COC2)c1F [Compound 286] | 10.8 | 
28 | COc1ccnc(CNC(=O)c2cn(Cc3ccc(Cn4ccccc4=O)cc3)nc2COCC(C)(C)OC)c1F [Compound 299] | 11.2 | 
29 | COCc1cn(Cc2ccc(Cn3ccccc3=O)cc2)nc1C(=O)N[C@@H]1CCc2c1ncn2C [Compound 59] | > 100 | 
30 | COCc1nn(Cc2ccc(Cn3ccccc3=O)cc2)cc1C(=O)NCc1c(C)cncc1C [Compound 114] | > 100 | 
31 | COCc1nn(Cc2ccc(Cn3ccccc3=O)cc2)cc1C(=O)NCc1c(Cl)c2ccncc2n1C [Compound 154] | 68.8 | 
32 | COCc1nn(Cc2cn3cc(C4CC4)ccc3n2)cc1C(=O)NCc1c(C)cc(N)nc1C [Compound 21] | 2.98 | 
33 | Cn1ccc2c(CNC(=O)c3cn(Cc4ccc(Cn5ccccc5=O)cc4)nc3C3COC3)nccc21 [Compound 336] | 13.9 | 
34 | COCc1nn(Cc2ccc(Cn3c(=O)sc4ccccc43)cc2)cc1C(=O)NCc1nccc(OC)c1F [Compound 140] | 78 | 
35 | COCc1nn(Cc2ccc(Cn3ccccc3=O)cc2)cc1C(=O)NCc1c(C#N)ccc(OC)c1C [Compound 190] | > 1000 | 
36 | CCN(CC)CCOCc1nn(Cc2ccc(Cn3ccccc3=O)cc2)cc1C(=O)NCc1nccc(OC)c1F [Compound 239] | 6.95 | 
37 | COCc1nn(Cc2ccc(-n3ccccc3=O)cc2)cc1C(=O)NCc1nccc(OC)c1F [Compound 92] | > 100 | 
38 | COCc1nn(Cc2ccc(Cn3ccccc3=O)cc2)cc1C(=O)NCc1nccc(SC)c1F [Compound 132] |  | 7.29
39 | O=C(NCc1nccc(C2CC2)c1F)c1cn(Cc2ccc(Cn3ccccc3=O)cc2)nc1N1CC(F)(F)C1 [Compound 272] | 42 | 
40 | O=C(NCc1ncc2c(n1)CNC2)c1cn(Cc2ccc(Cn3ccccc3=O)cc2)nc1C(F)(F)F [Compound 156] |  | 669
41 | O=C(NCc1nccc(NCC2CC2)c1F)c1cn(Cc2ccc(Cn3ccccc3=O)cc2)nc1C1COC1 [Compound 276] | > 1000 | 
42 | CCn1cnc2c1CC[C@@H]2NC(=O)c1cn(Cc2ccc(Cn3ccccc3=O)cc2)nc1COC [Compound 131] | 27.9 | 
43 | COc1ccc(F)c(CNC(=O)c2cn(Cc3ccc(Cn4ccccc4=O)cc3)nc2N2CC(C)(OC)C2)c1F [Compound 291] | 5.9 | 
44 | CN(C)c1ccnc(CNC(=O)c2cn(Cc3ccc(Cn4ccccc4=O)cc3)nc2C2CC(F)(F)C2)c1F [Compound 342] | 6.29 | 
45 | CNc1ccnc(CNC(=O)c2cn(Cc3ccc(CC4CC4)cc3)nc2C2COC2)c1F [Compound 344] | 237 | 
46 | COc1ccnc(CNC(=O)c2cn(Cc3ccc(Cn4ccccc4=O)cc3)nc2COCC(=O)N(C)C)c1F [Compound 164] | 26.3 | 

Row | SMILES | IC50 [1] [nM] | IC50 [2] [nM]
47 | Cc1cn2cncc2c(C)c1CNC(=O)c1cn(Cc2ccc(N3CC4C(C3)C4(F)F)cc2C#N)nc1C(F)(F)F (centres unmarked) [Compound 200] | 5.66 | 
48 | Cn1ncc2cnc(CNC(=O)c3cnn(Cc4ccc(Cn5ccccc5=O)cc4)c3)c(F)c21 [Compound 376] | 67 | 
49 | COc1ccnc(CNC(=O)c2cn(Cc3ccc(Cn4ccccc4=O)cc3)nc2NC2(C)COC2)c1F [Compound 297] | 2.83 | 
50 | O=C(NCc1nccc(NC2COC2)c1F)c1cn(Cc2ccc(Cn3ccccc3=O)cc2)nc1C1COC1 [Compound 331] | > 1000 | 
51 | Nc1cc2c(cn1)C(NC(=O)c1ncn(Cc3c(F)c(F)c(Cn4ccccc4=O)c(F)c3F)n1)CC2 (centres unmarked) [Compound 51] | > 100 | 
52 | Cc1cc(Cl)nc(C)c1CNC(=O)c1ncn(Cc2ccc(Cn3ccccc3=O)cc2)n1 [Compound 100] | > 100 | 
53 | O=C(NCc1cc2ccncc2[nH]1)c1nc(Cc2ccc(Cn3ccccc3=O)cc2)ns1 [Compound 177] | 17.5 | 
54 | N#Cc1cc(N2CC3C(C2)C3(F)F)ccc1Cn1cc(C(=O)NCc2cc3ccncc3[nH]2)c(C(F)(F)F)n1 (centres unmarked) [Compound 178] | 7.74 | 
55 | COc1ccnc(CNC(=O)c2cn(Cc3ccc(Cn4ccccc4=O)cc3)nc2C2CN(C(=O)C(C)C)C2)c1F [Compound 173] | 11.8 | 
56 | CCn1c(CNC(=O)c2cn(Cc3ccc(Cn4ccccc4=O)cc3)nc2COC)cc2cnccc21 [Compound 176] | 18 | 
57 | CC(C)CNc1ccnc(CNC(=O)c2cn(Cc3ccc(Cn4ccccc4=O)cc3)nc2C2COC2)c1F [Compound 269] | > 1000 | 
58 | COc1ccc(F)c(CNC(=O)c2cn(Cc3ccc(Cn4cc(F)ccc4=O)cc3)nc2COCCN2CCCC2)c1F [Compound 231] | 3.66 | 
59 | COc1ccnc(CNC(=O)c2cn(Cc3ccc(Cn4ccccc4=O)cc3)nc2OCc2ccccn2)c1F [Compound 229] | 22.9 | 
60 | CNc1ccnc(CNC(=O)c2cn(Cc3ccc(Cn4ccccc4=O)cc3)nc2C2COC2)c1F [Compound 260, N-((3-fluoro-4-(methylamino)pyridin-2-yl)methyl)-3-(oxetan-3-yl)-1-(4-((2-oxopyridin-1(2H)-yl)methyl)benzyl)-1H-pyrazole-4-carboxamide] | 7.78 | 
61 | COc1ccnc(CNC(=O)c2cn(Cc3ccc(Cn4ccccc4=O)cc3)nc2COCCN(C)C)c1F [Compound 191] | 16.3 | 
62 | COc1ccc(F)c(CNC(=O)c2cn(Cc3ccc(Cn4ccccc4=O)cc3)nc2C2CC(C)(OC)C2)c1F (centres unmarked) [Compound 211] | 8.34 | 
63 | COc1ccnc(CNC(=O)c2cn(Cc3ccc(Cn4ccccc4=O)cc3)nc2N2CC(C)(OC)C2)c1F [Compound 232] | 7.15 | 
64 | COCc1nn(Cc2ccc(N3CC4C(C3)C4(F)F)cc2C#N)cc1C(=O)NCc1c(C)cn2cncc2c1C (centres unmarked) [Compound 188] | 2.74 | 
65 | Cn1cc(Cl)c2cnc(CNC(=O)c3cnn(Cc4ccc(Cn5ccccc5=O)cc4)c3)c(F)c21 [Compound 367] | 43 | 
66 | COCC1(F)CN(Cc2nn(Cc3ccc(Cn4ccccc4=O)cc3)cc2C(=O)NCc2nccc(OC)c2F)C1 [Compound 205, 3-((3-fluoro-3-(methoxymethyl)azetidin-1-yl)methyl)-N-(3-fluoro-4-methoxypyridin-2-yl)methyl] |  | 8.98
67 | COc1ccnc(CNC(=O)c2ncn(Cc3ccc(Cn4cc(F)ccc4=O)cc3)n2)c1F [Compound 32] | > 100 | 
68 | COCc1nn(Cc2ccc(Cn3ccccc3=O)cc2)cc1C(=O)NCc1nc2c(s1)CNCC2 [Compound 152] | 594 | 
